Data taken from ChEMBL document CHEMBL4340506, “Inhibition of a viral prolyl hydroxylase” (Bioorg Med Chem, 2019).
The source made the active and inactive calls. The rule behind the calls is not given here. Where a SMILES comes first, the peptide text is derived from it. [ ]: non-standard residue; d: D form. Hyp = O=C(O)[C@@H]1C[C@@H](O)CN1

How the values were obtained:
[1] = target: Egl nine homolog 1 (Homo sapiens, UniProt Q9GZT9); experiment: Inhibition of recombinant human PHD2 by alphascreen assay
[2] = target: T1, Prolyl 4-hydroxylase (Paramecium bursaria Chlorella virus 1, UniProt Q84406); experiment: Inhibition of N-terminal His6-tagged recombinant Paramecium bursaria chlorella virus 1 CPH expressed in Escherichia coli Rosetta 2 (DE3) cells pre-incubated for 5 mins before 2OG as substrate and Fe2 as co-factor addition in presence of L-ascorbate and measured after 5 mins MALDI TOF MS analysis
T1 sequence (Q84406 whole entry): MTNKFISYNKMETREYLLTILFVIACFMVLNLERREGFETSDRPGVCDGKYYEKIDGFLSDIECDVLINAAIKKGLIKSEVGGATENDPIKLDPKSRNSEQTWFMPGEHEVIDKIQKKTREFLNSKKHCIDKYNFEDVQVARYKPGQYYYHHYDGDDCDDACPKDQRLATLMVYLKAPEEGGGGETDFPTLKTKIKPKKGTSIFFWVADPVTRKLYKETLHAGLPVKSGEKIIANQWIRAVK

[3] = target: T2, Prolyl 4-hydroxylase (Paramecium bursaria Chlorella virus 1) (UniProt Q84406); experiment: (§1) Substrate activity at N-terminal His6-tagged recombinant Paramecium bursaria chlorella virus 1 CPH expressed in Escherichia coli Rosetta 2 (DE3) cells assessed as succinate production at 500 uM incubated for 60 s in presence of 2OG and L-ascorbate and using Fe2 as cofactor by 1H NMR spectroscopy
T2 sequence (whole entry): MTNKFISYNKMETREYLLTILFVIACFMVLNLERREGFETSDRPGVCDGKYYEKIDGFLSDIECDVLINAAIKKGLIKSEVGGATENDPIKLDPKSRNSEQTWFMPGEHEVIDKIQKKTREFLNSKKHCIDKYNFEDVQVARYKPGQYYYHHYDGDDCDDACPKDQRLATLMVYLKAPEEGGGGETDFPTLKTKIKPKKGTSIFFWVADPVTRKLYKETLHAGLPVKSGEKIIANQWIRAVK

[4] = target: T2, Prolyl 4-hydroxylase (Paramecium bursaria Chlorella virus 1); experiment: Substrate activity at N-terminal His6-tagged recombinant Paramecium bursaria chlorella virus 1 CPH expressed in Escherichia coli Rosetta 2 (DE3) cells assessed as substrate hydroxylation at 100 uM incubated for 16 hrs in presence of 2OG by MALDI TOF MS analysis
[5] = target: T2, Prolyl 4-hydroxylase (Paramecium bursaria Chlorella virus 1); experiment: as §1, with “2OG and in absence of L-ascorbate and” for “2OG and L-ascorbate and”
[6] = target: T2, Prolyl 4-hydroxylase (Paramecium bursaria Chlorella virus 1); experiment: Substrate activity at N-terminal His6-tagged recombinant Paramecium bursaria chlorella virus 1 CPH expressed in Escherichia coli Rosetta 2 (DE3) cells assessed as substrate hydroxylation up to 1 mM incubated for 16 hrs in presence of 2OG by MALDI TOF MS analysis
[7] = target: Hypoxia-inducible factor 1-alpha inhibitor (Homo sapiens, UniProt Q9NWT6); experiment: Inhibition of recombinant human FIH using 2OG as substrate and Fe2 as co-factor assessed as hydroxylation incubated for 15 mins in presence of L-ascorbate by LC-MS analysis
[8] = target: T3, Prolyl 3-hydroxylase OGFOD1 (Homo sapiens, UniProt Q8N543); experiment: Inhibition of recombinant human OGFOD1 using 2OG as substrate and Fe2 as co-factor assessed as hydroxylation incubated for 15 mins in presence of L-ascorbate by MALDI-TOF MS analysis
T3 sequence (Q8N543 whole entry): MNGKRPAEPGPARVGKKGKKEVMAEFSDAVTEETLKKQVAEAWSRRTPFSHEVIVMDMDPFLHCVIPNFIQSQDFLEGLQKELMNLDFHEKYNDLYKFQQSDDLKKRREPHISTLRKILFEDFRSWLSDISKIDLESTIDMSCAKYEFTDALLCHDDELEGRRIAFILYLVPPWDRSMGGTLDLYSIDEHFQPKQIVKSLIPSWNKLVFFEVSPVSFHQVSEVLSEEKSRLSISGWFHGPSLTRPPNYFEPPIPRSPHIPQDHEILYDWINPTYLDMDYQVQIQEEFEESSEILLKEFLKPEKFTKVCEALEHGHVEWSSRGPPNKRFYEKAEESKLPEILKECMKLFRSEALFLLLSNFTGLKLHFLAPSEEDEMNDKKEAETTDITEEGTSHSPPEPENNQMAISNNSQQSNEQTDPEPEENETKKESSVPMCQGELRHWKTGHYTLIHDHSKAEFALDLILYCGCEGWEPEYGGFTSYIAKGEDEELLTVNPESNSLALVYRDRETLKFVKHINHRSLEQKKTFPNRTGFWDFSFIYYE

[9] = target: T2, Prolyl 4-hydroxylase (Paramecium bursaria Chlorella virus 1); experiment: Substrate activity at N-terminal His6-tagged recombinant Paramecium bursaria chlorella virus 1 CPH expressed in Escherichia coli Rosetta 2 (DE3) cells assessed as substrate hydroxylation incubated for 16 hrs in presence of 2OG and in absence of L-ascorbate by MALDI TOF MS analysis
[10] = target: T2, Prolyl 4-hydroxylase (Paramecium bursaria Chlorella virus 1); experiment: Substrate activity at N-terminal His6-tagged recombinant Paramecium bursaria chlorella virus 1 CPH expressed in Escherichia coli Rosetta 2 (DE3) cells assessed as succinate production at 500 uM incubated for 60 s in presence of 2OG and using Fe2 as cofactor by 1H NMR spectroscopy
[11] = compound: C[C@H](NC(=O)[C@@H]1CCCN1)C(=O)N1C[C@H](O)C[C@H]1C(=O)N[C@@H](CCCCN)C(=O)N1CCC[C@H]1C(=O)N[C@@H](C)C(=O)N1CCC[C@H]1C(=O)N[C@@H](CCCCN)C(=O)O; experiment: (§2) Substrate activity at N-terminal His6-tagged recombinant Paramecium bursaria chlorella virus 1 CPH expressed in Escherichia coli Rosetta 2 (DE3) cells assessed as Km(app) for ascorbate incubated for 16 hrs in presence of ascorbate, 2OG and Fe2 by MALDI TOF MS analysis
[12] = compound: C[C@H](NC(=O)[C@@H]1CCCN1)C(=O)N1CCC[C@H]1C(=O)N[C@@H](CCCCN)C(=O)N1C[C@H](O)C[C@H]1C(=O)N[C@@H](C)C(=O)N1CCC[C@H]1C(=O)N[C@@H](CCCCN)C(=O)O; experiment: as §2
[13] = compound: C[C@H](NC(=O)[C@@H]1CCCN1)C(=O)N1C[C@H](O)C[C@H]1C(=O)N[C@@H](CCCCN)C(=O)N1CCC[C@H]1C(=O)N[C@@H](C)C(=O)N1CCC[C@H]1C(=O)N[C@@H](CCCCN)C(=O)O; experiment: (§3) Substrate activity at N-terminal His6-tagged recombinant Paramecium bursaria chlorella virus 1 CPH expressed in Escherichia coli Rosetta 2 (DE3) cells assessed as Km(app) for Fe2 incubated for 16 hrs in presence of 2OG and Fe2 by MALDI TOF MS analysis
[14] = compound: C[C@H](NC(=O)[C@@H]1CCCN1)C(=O)N1CCC[C@H]1C(=O)N[C@@H](CCCCN)C(=O)N1C[C@H](O)C[C@H]1C(=O)N[C@@H](C)C(=O)N1CCC[C@H]1C(=O)N[C@@H](CCCCN)C(=O)O; experiment: as §3
[15] = compound: C[C@H](NC(=O)[C@@H]1CCCN1)C(=O)N1CCC[C@H]1C(=O)N[C@@H](CCCCN)C(=O)N1C[C@H](O)C[C@H]1C(=O)N[C@@H](C)C(=O)N1CCC[C@H]1C(=O)N[C@@H](CCCCN)C(=O)O; experiment: Substrate activity at N-terminal His6-tagged recombinant Paramecium bursaria chlorella virus 1 CPH expressed in Escherichia coli Rosetta 2 (DE3) cells assessed as substrate Kcat incubated for 16 hrs in presence of 2OG by MALDI TOF MS analysis
[16] = compound: C[C@H](NC(=O)[C@@H]1CCCN1)C(=O)N1CCC[C@H]1C(=O)N[C@@H](CCCCN)C(=O)N1C[C@H](O)C[C@H]1C(=O)N[C@@H](C)C(=O)N1CCC[C@H]1C(=O)N[C@@H](CCCCN)C(=O)O; experiment: Substrate activity at N-terminal His6-tagged recombinant Paramecium bursaria chlorella virus 1 CPH expressed in Escherichia coli Rosetta 2 (DE3) cells assessed as substrate Km incubated for 16 hrs in presence of 2OG by MALDI TOF MS analysis
[17] = compound: C[C@H](NC(=O)[C@@H]1CCCN1)C(=O)N1C[C@H](O)C[C@H]1C(=O)N[C@@H](CCCCN)C(=O)N1CCC[C@H]1C(=O)N[C@@H](C)C(=O)N1CCC[C@H]1C(=O)N[C@@H](CCCCN)C(=O)O; experiment: (§4) Substrate activity at N-terminal His6-tagged recombinant Paramecium bursaria chlorella virus 1 CPH expressed in Escherichia coli Rosetta 2 (DE3) cells assessed as Km for 2OG incubated for 16 hrs in presence of 2OG and Fe2 by MALDI TOF MS analysis
[18] = compound: C[C@H](NC(=O)[C@@H]1CCCN1)C(=O)N1CCC[C@H]1C(=O)N[C@@H](CCCCN)C(=O)N1C[C@H](O)C[C@H]1C(=O)N[C@@H](C)C(=O)N1CCC[C@H]1C(=O)N[C@@H](CCCCN)C(=O)O; experiment: as §4

Hypoxia-inducible factor 1-alpha inhibitor, sequence (Q9NWT6 whole entry): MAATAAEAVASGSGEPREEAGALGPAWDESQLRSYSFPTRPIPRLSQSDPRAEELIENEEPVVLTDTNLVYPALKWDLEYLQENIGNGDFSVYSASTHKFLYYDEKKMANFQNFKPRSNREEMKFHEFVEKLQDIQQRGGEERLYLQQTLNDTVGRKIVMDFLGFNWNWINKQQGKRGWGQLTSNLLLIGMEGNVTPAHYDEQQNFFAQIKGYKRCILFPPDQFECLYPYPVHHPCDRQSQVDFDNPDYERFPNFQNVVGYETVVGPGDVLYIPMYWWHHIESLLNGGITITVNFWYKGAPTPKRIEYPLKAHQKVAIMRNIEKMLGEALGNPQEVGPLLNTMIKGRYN
Egl nine homolog 1, sequence (Q9GZT9 whole entry): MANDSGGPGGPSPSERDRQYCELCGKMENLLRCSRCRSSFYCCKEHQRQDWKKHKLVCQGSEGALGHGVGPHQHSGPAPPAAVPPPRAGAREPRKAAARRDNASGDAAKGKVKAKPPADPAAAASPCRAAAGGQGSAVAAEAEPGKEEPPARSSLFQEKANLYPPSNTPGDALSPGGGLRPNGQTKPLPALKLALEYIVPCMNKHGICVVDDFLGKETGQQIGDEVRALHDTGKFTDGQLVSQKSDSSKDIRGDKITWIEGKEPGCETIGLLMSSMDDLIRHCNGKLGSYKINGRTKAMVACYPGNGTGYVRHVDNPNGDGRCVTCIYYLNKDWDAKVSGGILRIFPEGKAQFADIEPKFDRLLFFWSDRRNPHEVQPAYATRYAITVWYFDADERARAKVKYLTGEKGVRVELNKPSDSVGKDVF

Molecule: O=C(O)CNC(=O)c1c(O)c2ccccc2n(Cc2ccccc2)c1=O
- IC50 [1]: 0.022 µM
- IC50 [2]: 8.5 µM

Molecule: C[C@H](NC(=O)[C@@H]1CCCN1)C(=O)N1C[C@H](O)C[C@H]1C(=O)N[C@@H](CCCCN)C(=O)N1CCC[C@H]1C(=O)N[C@@H](C)C(=O)N1CCC[C@H]1C(=O)N[C@@H](CCCCN)C(=O)O (H-PA[Hyp]KPAPK-OH)
- Activity [3]: Active
- Activity [4]: inactive
- Activity [5]: inactive
- Activity [6]: inactive

Molecule: Cc1nc(C(=O)NCC(=O)O)c(O)c2ccc(Oc3ccccc3)cc12 [ROXADUSTAT]
- IC50 [2]: 5 µM
- Ki [2]: 1.07 µM
- IC50 [7]: > 100 µM
- IC50 [8]: < 1 µM

Molecule: H-PAPKPAPK-OH
- Activity [9]: inactive
- Activity [10]: Active

B1: Prolyl 4-hydroxylase (Paramecium bursaria Chlorella virus 1), Q84406 (protein)
chain: MTNKFISYNKMETREYLLTILFVIACFMVLNLERREGFETSDRPGVCDGKYYEKIDGFLSDIECDVLINAAIKKGLIKSEVGGATENDPIKLDPKSRNSEQTWFMPGEHEVIDKIQKKTREFLNSKKHCIDKYNFEDVQVARYKPGQYYYHHYDGDDCDDACPKDQRLATLMVYLKAPEEGGGGETDFPTLKTKIKPKKGTSIFFWVADPVTRKLYKETLHAGLPVKSGEKIIANQWIRAVK
- Km [11]: 1.7 µM
- Km [12]: 13.8 µM
- Km [13]: 0.9 µM
- Km [14]: 1.1 µM
- kcat [15]: 52.1 s⁻¹
- Km [16]: 230 µM
- Km [17]: 29.5 µM
- Km [18]: 27.4 µM
